# Results reported in patent US12202835B2, “Substituted aromatic ring-linked dioxinoquinazolines and dioxinoquinolines as kinase inhibitors” (BEIJING SCITECH-MQ PHARMACEUTICALS LIMITED, priority 2018, dated 2025).
# Experiments:
# MER kinase = MER kinase (Homo sapiens (Human), UniProt Q12866); test: Assay of small molecular compounds for inhibiting the activity of MER kinase (LANCE TR-FRET); format: biochemical
# Method in brief: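 MER kinase preincubated 5 min at RT with compound (11 points, 0.042-2500 nM final), then ULight-poly GT and ATP added (4× stocks 200 nM and 20 μM) for 60 min at RT, 1% DMSO. Phosphorylation detected by LANCE TR-FRET; IC50 from % inhibition versus controls.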
# VEGFR-2 kinase = VEGFR-2 kinase (Homo sapiens (Human), UniProt P35968); test: Assay of small molecular compounds for inhibiting the activity of VEGFR-2 kinase (LANCE TR-FRET); format: biochemical; conditions: read-out: VEGFR2 IC50
# Sequence of VEGFR-2 kinase (P35968 20-1356): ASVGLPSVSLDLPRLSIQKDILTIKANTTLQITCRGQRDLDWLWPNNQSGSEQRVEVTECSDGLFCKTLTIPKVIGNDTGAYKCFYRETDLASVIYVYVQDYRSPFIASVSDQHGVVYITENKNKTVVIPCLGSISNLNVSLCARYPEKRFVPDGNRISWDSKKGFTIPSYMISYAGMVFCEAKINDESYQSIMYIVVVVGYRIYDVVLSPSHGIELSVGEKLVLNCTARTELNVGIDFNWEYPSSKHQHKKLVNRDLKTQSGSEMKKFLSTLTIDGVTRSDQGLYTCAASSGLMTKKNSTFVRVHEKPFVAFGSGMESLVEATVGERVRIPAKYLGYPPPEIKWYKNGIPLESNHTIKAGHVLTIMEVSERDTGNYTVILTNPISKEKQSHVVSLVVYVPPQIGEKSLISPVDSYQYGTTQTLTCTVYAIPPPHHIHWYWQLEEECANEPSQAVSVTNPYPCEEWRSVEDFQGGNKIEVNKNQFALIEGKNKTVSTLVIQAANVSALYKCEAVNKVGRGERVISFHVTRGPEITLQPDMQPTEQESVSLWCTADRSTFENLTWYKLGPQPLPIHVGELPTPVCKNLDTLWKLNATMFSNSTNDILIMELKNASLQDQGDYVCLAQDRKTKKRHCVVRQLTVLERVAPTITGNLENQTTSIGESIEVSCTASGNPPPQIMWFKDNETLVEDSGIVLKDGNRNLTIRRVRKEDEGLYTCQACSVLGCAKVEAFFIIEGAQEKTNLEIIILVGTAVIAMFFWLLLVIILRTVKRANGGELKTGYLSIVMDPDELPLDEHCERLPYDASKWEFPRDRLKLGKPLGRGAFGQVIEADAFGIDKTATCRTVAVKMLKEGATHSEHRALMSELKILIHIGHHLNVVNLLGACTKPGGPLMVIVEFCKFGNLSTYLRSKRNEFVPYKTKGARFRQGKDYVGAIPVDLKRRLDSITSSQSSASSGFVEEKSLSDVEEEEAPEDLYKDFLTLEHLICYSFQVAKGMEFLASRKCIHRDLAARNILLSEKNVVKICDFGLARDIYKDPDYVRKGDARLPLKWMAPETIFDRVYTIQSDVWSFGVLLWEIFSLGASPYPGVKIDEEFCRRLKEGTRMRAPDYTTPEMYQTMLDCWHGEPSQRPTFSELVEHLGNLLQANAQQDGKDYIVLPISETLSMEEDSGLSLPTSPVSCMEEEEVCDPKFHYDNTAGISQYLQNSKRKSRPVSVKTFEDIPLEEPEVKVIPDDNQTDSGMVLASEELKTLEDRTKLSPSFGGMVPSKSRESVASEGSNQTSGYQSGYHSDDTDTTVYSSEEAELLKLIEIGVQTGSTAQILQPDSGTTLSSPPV
# Method in brief: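 LANCE TR-FRET with human VEGFR-2 (2× stock 0.5 nM) preincubated 30 min with compound (final 2500 to 0.042 nM, 11-point 3-fold), then ULight-JAK-1 (Tyr1023) peptide/ATP added (4× stocks 200 nM/40 μM). Reaction 60 min room temperature, 4% DMSO; IC50 from inhibition-rate curve.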
# Ba/F3-AXL cells = test: Assay for inhibiting the proliferation of Ba/F3-AXL cells (CCK-8); format: cell-based; conditions: 72 hours of incubation, medium with 100 ng/mL hGas6, CCK-8
# Description: The values were then imported into Graphpad Prism 5 software for curve fitting, and IC50 was calculated.
# Sequence of MER kinase (Q12866 21-999): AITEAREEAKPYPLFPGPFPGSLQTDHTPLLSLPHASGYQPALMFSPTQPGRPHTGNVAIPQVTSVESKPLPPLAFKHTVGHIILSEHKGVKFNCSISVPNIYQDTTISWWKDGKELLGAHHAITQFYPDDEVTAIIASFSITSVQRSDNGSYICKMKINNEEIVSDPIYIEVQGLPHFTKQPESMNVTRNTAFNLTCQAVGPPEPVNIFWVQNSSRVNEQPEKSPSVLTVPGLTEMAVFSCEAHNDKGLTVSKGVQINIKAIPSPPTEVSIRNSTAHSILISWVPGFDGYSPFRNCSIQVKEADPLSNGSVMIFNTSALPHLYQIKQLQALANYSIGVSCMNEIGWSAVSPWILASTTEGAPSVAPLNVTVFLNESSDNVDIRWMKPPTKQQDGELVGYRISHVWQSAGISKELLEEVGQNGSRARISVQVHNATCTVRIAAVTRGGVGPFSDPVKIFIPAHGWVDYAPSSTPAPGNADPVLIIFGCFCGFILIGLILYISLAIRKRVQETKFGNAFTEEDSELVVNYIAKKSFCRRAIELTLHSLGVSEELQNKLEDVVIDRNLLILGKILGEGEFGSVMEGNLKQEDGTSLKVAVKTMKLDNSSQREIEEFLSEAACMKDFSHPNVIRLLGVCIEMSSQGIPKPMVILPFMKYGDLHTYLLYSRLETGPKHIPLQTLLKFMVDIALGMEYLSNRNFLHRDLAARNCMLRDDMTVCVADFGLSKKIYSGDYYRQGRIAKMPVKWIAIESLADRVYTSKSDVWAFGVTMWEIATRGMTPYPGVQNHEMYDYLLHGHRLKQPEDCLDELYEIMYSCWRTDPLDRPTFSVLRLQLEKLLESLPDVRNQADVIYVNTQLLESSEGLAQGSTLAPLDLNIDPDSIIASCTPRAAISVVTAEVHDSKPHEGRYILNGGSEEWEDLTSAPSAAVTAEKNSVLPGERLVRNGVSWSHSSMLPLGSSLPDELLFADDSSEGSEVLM
SMILES,IC50 (MER kinase) [nM],IC50 (VEGFR-2 kinase) [nM],IC50 (Ba/F3-AXL cells) [nM]
"CCOc1ccn(-c2ccc(F)cc2)c(=O)c1C(=O)Nc1ccc(Oc2ccnc3cc(OCCCN4CCOCC4)c4c(c23)OCCO4)c(F)c1 [Example 22, N-(3-fluoro-4-((5-(3-morpholinopropoxy)-2,3-dihydro-[1,4]dioxino[2,3-f]quinolin-10-yl)oxy)phenyl)-1-(4-fluorophenyl)-4-ethoxy-2-oxo-1,2-dihydropyridine-3-carboxamide]",≤ 50,≤ 50,< 50
"COc1cn(-c2ccc(F)cc2C)nc1C(=O)Nc1ccc(Oc2ccnc3cc(OCCCN4CCOCC4)c4c(c23)OCCO4)c(F)c1 [Example 27, 1-(4-fluoro-2-methylphenyl)-N-(3-fluoro-4-((5-(3-morpholinopropoxy)-2,3-dihydro-[1,4]dioxino[2,3-f]quinolin-10-yl)oxy)phenyl)-4-methoxy-1H-pyrazole-3-carboxamide]",≤ 50,≤ 50,< 50
"O=C(Nc1ccc(Oc2ccnc3cc(OCCCN4CCCCC4)c4c(c23)OCCO4)c(F)c1)c1cccn(-c2ccc(F)cc2)c1=O [Example 31, N-(3-fluoro-4-((5-(3-(piperidin-1-yl)propoxy)-2,3-dihydro-[1,4]dioxino[2,3-f]quinolin-10-yl)oxy)phenyl)-1-(4-fluorophenyl)-2-oxo-1,2-dihydropyridine-3-carboxamide]",≤ 50,≤ 50,< 50
"COc1ccn(-c2ccc(F)cc2)c(=O)c1C(=O)Nc1ccc(Oc2ccnc3cc(OCCCN4CCCCC4)c4c(c23)OCCO4)c(F)c1 [Example 32, N-(3-fluoro-4-((5-(3-(piperidin-1-yl)propoxy)-2,3-dihydro-[1,4]dioxino[2,3-f]quinolin-10-yl)oxy)phenyl)-1-(4-fluorophenyl)-4-methoxy-2-oxo-1,2-dihydropyridine-3-carboxamide]",≤ 50,≤ 50,< 50

# Other lines, results leading:
IC50 (MER kinase) [nM],IC50 (VEGFR-2 kinase) [nM],IC50 (Ba/F3-AXL cells) [nM],SMILES
≤ 50,≤ 50,< 50,"CCOc1ccn(-c2ccc(F)cc2)c(=O)c1C(=O)Nc1ccc(Oc2ccnc3cc(OCCCN4CCCCC4)c4c(c23)OCCO4)c(F)c1 [Example 33, N-(3-fluoro-4-((5-(3-(piperidin-1-yl)propoxy)-2,3-dihydro-[1,4]dioxino[2,3-f]quinolin-10-yl)oxy)phenyl)-1-(4-fluorophenyl)-4-ethoxy-2-oxo-1,2-dihydropyridine-3-carboxamide]"
≤ 50,≤ 50,< 50,"COCCOc1cc2nccc(Oc3ccc(NC(=O)c4cccn(-c5ccc(F)cc5)c4=O)cc3F)c2c2c1OCCO2 [Example 34, N-(3-fluoro-4-((5-(2-methoxyethoxy)-2,3-dihydro-[1,4]dioxino[2,3-f]quinolin-10-yl)oxy)phenyl)-1-(4-fluorophenyl)-2-oxo-1,2-dihydropyridine-3-carboxamide]"
≤ 50,≤ 50,< 50,"COCCOc1cc2nccc(Oc3ccc(NC(=O)c4c(OC)ccn(-c5ccc(F)cc5)c4=O)cc3F)c2c2c1OCCO2 [Example 35, N-(3-fluoro-4-((5-(2-methoxyethoxy)-2,3-dihydro-[1,4]dioxino[2,3-f]quinolin-10-yl)oxy)phenyl)-1-(4-fluorophenyl)-4-methoxy-2-oxo-1,2-dihydropyridine-3-carboxamide]"
≤ 50,≤ 50,< 50,"CCOc1ccn(-c2ccc(F)cc2)c(=O)c1C(=O)Nc1ccc(Oc2ccnc3cc(OCCOC)c4c(c23)OCCO4)c(F)c1 [Example 36, N-(3-fluoro-4-((5-(2-methoxyethoxy)-2,3-dihydro-[1,4]dioxino[2,3-f]quinolin-10-yl)oxy)phenyl)-1-(4-fluorophenyl)-4-ethoxy-2-oxo-1,2-dihydropyridine-3-carboxamide]"
